{
  "source": "patent US6126940A",
  "about": "“Hair-growing agent comprised of proanthocyanidins” (Kyowa Hakko Kogyo Co., Ltd., priority 1994, dated 2000)",
  "system": "dd mice",
  "assay": "Acute Toxicity",
  "format": "in vivo, mouse (male dd)",
  "settings": "subcutaneous, 2000 mg/kg, five male dd mice",
  "data": [
    {"compound": "Oc1cc(O)c2c(c1)O[C@H](c1ccc(O)c(O)c1)[C@H](O)[C@H]2c1c(O)cc(O)c2c1O[C@H](c1ccc(O)c(O)c1)[C@H](O)C2", "note": "[Compound 2, epicatechin-(4β→8)-epicatechin]", "values": [
      {"measurement": "mortality", "result": "none of the mice died"}
    ]}
  ]
}
